# Starred links: 1 amine or outer side, 2 acyl side, 3 side chain; linkers in the order of their positions; H or OH if unused. Non-standard residues stand in square brackets, D forms with d. Residues, ends and D or L forms follow the SMILES beside them. X2 = O=C(CCc1cccc2c1Cc1c(CCN[*:1])cccc1-2)[*:2]; X3 = O=C(CCc1cccc2c1oc1c(CCN[*:1])cccc12)[*:2]; Nva = CCC[C@H](N)C(=O)O
# Tests used:
# SK-OV-3 = assay: Anticancer activity against human SK-OV-3 cells assessed as reduction in cell viability and measured after 72 hrs by CellTiter-Glo reagent based assay; type: functional; conditions: SK-OV-3, 72 h
# [1] = biological target: C-type lectin domain family 4 member K (Homo sapiens, UniProt Q9UJ71); assay: Inhibition of human Langerin overexpressed in human Raji cells incubated for 30 mins by flow cytometry; type: cell-based
# Sequence of C-type lectin domain family 4 member K (Q9UJ71 whole entry, the tested form may be a part): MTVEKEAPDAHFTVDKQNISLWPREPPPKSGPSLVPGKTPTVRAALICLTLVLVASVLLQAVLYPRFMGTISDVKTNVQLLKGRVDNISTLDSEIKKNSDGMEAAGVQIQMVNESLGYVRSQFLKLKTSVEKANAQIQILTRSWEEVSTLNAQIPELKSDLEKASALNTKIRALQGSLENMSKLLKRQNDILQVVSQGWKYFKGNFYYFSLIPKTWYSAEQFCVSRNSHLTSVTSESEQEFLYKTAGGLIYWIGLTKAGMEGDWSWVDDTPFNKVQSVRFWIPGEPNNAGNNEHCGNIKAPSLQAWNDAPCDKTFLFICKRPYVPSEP
# Galectin-1 [2] = biological target: T1, Galectin-1 (Homo sapiens, UniProt P09382); assay: Binding affinity to Gal-1 (unknown origin) incubated for 30 mins by RP-HPLC analysis
# T1 sequence (P09382 whole entry): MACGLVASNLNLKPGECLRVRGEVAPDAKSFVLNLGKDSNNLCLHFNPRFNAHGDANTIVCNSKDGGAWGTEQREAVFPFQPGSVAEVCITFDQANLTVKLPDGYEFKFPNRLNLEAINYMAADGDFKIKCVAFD
# MCF7 = assay: Anticancer activity against human MCF7 cells assessed as reduction in cell viability incubated for 48 hrs by MTT assay; type: functional, cell-based; conditions: MCF7, 48 h
# Galectin-1 [3] = biological target: T1, Galectin-1; assay: Binding affinity to human Gal-1 assessed as decrease in Gal-1 levels by ELISA
# DU-145 = assay: Antiproliferative activity against human DU-145 cells assessed as reduction in cell proliferation incubated for 72 hrs by SRB assay; type: functional, cell-based; conditions: DU-145, 72 h
# PC-3 = assay: Antiproliferative activity against human PC-3 cells assessed as reduction in cell proliferation incubated for 72 hrs by SRB assay; type: functional, cell-based; conditions: PC-3, 72 h
# MDCK = assay: Antimigratory activity against dog MDCK cells assessed as inhibition of cell migration preincubated for 0.5 hrs followed by wounding and measured after 24 hrs by wound closure assay; type: functional, cell-based; conditions: Canis lupus familiaris
# HUVEC = assay: Antiproliferative activity against human HUVEC cells assessed as inhibition of basic fibroblast growth factor stimulated stimulated cell proliferation incubated for 72 hrs by CCK-8 assay; type: functional, cell-based
# Galectin-1 [4] = biological target: T1, Galectin-1; assay: Binding affinity to Gal-1 (unknown origin) by fluorescence spectroscopy
# A549 = assay: Anticancer activity against human A549 cells assessed as reduction in cell viability incubated for 48 hrs by MTT assay; type: functional, cell-based; conditions: A549, 48 h
# [5] = Anticancer activity against human MDA-MB-231 cells assessed as reduction in cell viability incubated for 48 hrs by MTT assay; type: functional, cell-based; conditions: MDA-MB-23, 48 h
# NCI-H460 = assay: Anticancer activity against human NCI-H460 cells assessed as reduction in cell viability incubated for 48 hrs by MTT assay; type: functional, cell-based; conditions: NCI-H460, 48 h
# MG-63 = assay: Anticancer activity against human MG-63 cells assessed as reduction in cell viability incubated for 48 hrs by MTT assay; type: functional, cell-based; conditions: MG-63, 48 h
# [6] = Anti-angiogenic activity in human MA148 cells xenografted in athymic nude mouse assesed as tumor growth inhibition at 10 mg/kg, sc weekly once for 28 days; type: functional; conditions: MA148, 672 h, time 28 day, read-out: TGI
# P-selectin = biological target: T2, P-selectin (Homo sapiens, UniProt P16109); assay: Inhibition of P-selectin (unknown origin) incubated for 30 mins by ELISA
# T2 sequence (P16109 whole entry): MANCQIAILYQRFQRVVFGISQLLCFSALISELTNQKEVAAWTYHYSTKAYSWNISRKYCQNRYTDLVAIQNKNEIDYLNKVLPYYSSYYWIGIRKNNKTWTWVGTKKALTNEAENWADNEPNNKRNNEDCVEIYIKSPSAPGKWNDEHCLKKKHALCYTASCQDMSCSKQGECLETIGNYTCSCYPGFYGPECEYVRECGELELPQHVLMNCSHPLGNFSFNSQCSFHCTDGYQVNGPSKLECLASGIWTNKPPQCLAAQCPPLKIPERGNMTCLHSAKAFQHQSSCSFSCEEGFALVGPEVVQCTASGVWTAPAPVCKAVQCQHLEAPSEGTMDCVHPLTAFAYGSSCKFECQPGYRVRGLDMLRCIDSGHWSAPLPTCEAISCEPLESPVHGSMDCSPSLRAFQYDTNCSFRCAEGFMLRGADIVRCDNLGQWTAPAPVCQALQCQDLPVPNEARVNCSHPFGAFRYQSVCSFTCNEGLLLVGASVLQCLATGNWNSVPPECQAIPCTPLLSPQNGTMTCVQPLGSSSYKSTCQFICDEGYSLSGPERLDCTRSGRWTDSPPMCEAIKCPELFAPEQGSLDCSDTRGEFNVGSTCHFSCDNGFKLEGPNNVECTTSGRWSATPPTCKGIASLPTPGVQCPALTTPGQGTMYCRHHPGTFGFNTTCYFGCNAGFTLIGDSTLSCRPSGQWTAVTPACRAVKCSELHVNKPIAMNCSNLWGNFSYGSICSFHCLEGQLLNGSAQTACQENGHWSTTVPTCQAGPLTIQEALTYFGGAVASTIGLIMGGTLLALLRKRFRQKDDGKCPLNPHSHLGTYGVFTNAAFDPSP
molecule,measurement,setting,value
CC(=O)OCCN(CCOC(C)=O)c1ccc(-c2nc3cc(C(CC(N)=O)NC(=O)C(N)Cc4ccc(Cl)c(Cl)c4)ccc3n2Cc2ccc(F)c(F)c2)cc1 (centres undefined),IC50,SK-OV-3,15.7 µM
CCOC(=O)c1sc(=O)[nH]c1C(F)(F)F,IC50,[1],1060 µM
O=C(Nc1ccc(O)cc1)c1ccc(-c2nc3cc(Cl)ccc3n2Cc2ccccc2)cc1,Activity,Galectin-1 [2],85.4%
same,IC50,MCF7,7.01 µM
CCOC(=O)C1CCN(Cc2cc(=O)oc3cc(OCc4ccc([N+](=O)[O-])cc4)ccc23)CC1,IC50,Galectin-1 [3],100 µM
same,IC50,DU-145,8.95 µM
same,IC50,PC-3,7.45 µM
COc1c(C)c(OC)c2c(c1OCc1ccccc1)[C@H](COCc1ccccc1)N1[C@@H]3[C@H]4[C@H](C[C@H]([C@@H]1C#N)N4C)C(=O)N[C@H]23,IC50,MDCK,32.5 µM
CCC[C@H](NC(=O)[C@H](CCC(N)=O)NC(=O)[C@@H](NC(=O)[C@@H](N)CO)C(C)C)C(=O)N[C@@H](CCCCN)C(=O)N[C@@H](CC(C)C)C(=O)NCCc1cccc2c1Cc1c(CCC(=O)N[C@H](C(=O)N[C@H](C(=O)N[C@H](C(=O)N[C@@H](CCCCN)C(=O)N[C@@H](CC(C)C)C(=O)N[C@@H](CC(N)=O)C(=O)N[C@@H](C)C(=O)O)C(C)C)[C@@H](C)CC)[C@@H](C)CC)cccc1-2 (H-SVQ[Nva]KL[X2]IIVKLNA-OH),IC50,HUVEC,10 µM
CCOC(=O)C1CCNC(=O)C1O (centres undefined),IC50,[1],1190 µM
COc1ccc2c(c1)c(C/C=C(/O)c1cc3ccccc3oc1=O)cn2Cc1cccc(Cl)c1,Ka,Galectin-1 [4],6.6 10^5/M
O=C(O)c1cccnc1Nc1cccc(C(F)(F)F)c1 [NIFLUMIC ACID],IC50,[1],590 µM
Oc1cccc(-n2cc(COc3ccc(-c4nc5cc(Cl)ccc5n4Cc4ccccc4)cc3)nn2)c1,IC50,A549,0.63 µM
same,IC50,[5],0.94 µM
same,IC50,NCI-H460,0.99 µM
same,IC50,MCF7,1.3 µM
CC1CN(Cc2cc(=O)oc3cc(OCc4cn(Cc5ccc(Cl)cc5Cl)nn4)ccc23)CC(C)O1 (centres undefined),IC50,MG-63,0.8 µM
Cc1n[nH]c(C)c1Cc1ccc(O)cc1,IC50,[1],1030 µM
H-ANIKLSVQMKLFKRHLKWKIIVKLNDGRELSLD-OH,inhibition in vivo at 10 mg/kg,[6],80%
CC[C@H](C)[C@H](NC(=O)[C@H](C)NC(=O)CCc1cccc2c1oc1c(CCNC(=O)[C@H](CC(C)C)NC(=O)[C@H](CCCCN)NC(=O)[C@H](CCSC)NC(=O)[C@H](CCC(N)=O)NC(=O)[C@@H](NC(=O)[C@@H](N)CO)C(C)C)cccc12)C(=O)N[C@H](C(=O)N[C@@H](CCCCN)C(=O)N[C@@H](CC(C)C)C(=O)N[C@@H](CC(N)=O)C(=O)N[C@@H](C)C(=O)O)C(C)C (H-SVQMKL[X3]AIVKLNA-OH),IC50,HUVEC,5 µM
CCOC(=O)c1cc(C(F)(F)F)n[nH]1,IC50,[1],580 µM
COc1cccc2c1[C@H](CO)N1[C@@H](C#N)[C@H]3C[C@@H](C(=O)O)[C@H]([C@@H]1C2)N3C,IC50,MDCK,140 µM
CCN1CCN(CC(C)c2ccc(F)cc2)CC1 (centres undefined),IC50,[1],1150 µM
CCCCCCCCCCCCCCCCNC(=O)/C=C/c1ccc(-c2[nH]c(-c3ccc(C4=NNC(C=O)C4)cc3)nc2-c2ccc(/C=C/C(=O)O)cc2)cc1 (centres undefined),IC50,P-selectin,0.3 µM

# Reference: ChEMBL document CHEMBL5241084, “Non-carbohydrate strategies to inhibit lectin proteins with special emphasis on galectins” (Eur J Med Chem, 2021)
